Laboratory results as given in patent US20170119806A1, “[…] LACTONE DERIVATIVES AND METHODS OF MAKING AND USING THEREOF” (OHIO STATE INNOVATION FOUNDATION, priority 2014, published 2017).

Test system: purified primary NK cells or NKL cells
Test: Real-time RT-PCR of mRNA in NK cells
Assay type: cell-based, human
Conditions: 10 μM PL-C, 12 h
Description: (A) Chemical structure of PL-C (phyllanthusmin C, 4), (9) Healthy donor PBMCs (left panel) or enriched NK cells (right panel) were treated with DMSO vehicle control or 10 μM PL-C for 18 h in the presence of […] (10 ng/mL) or IL-15 (100 ng/mL). The cells were harvested and analyzed by intracellular flow cytometry to determine the frequency of IFN-γ^+ cells in CD56^+CD3^− NK cells (n=8 for PBMC and n=5 for enriched NK). (C) Highly purified (≧99.5%) human primary NK cells were treated with 10 μM PL-C for 18 h to determine the levels of IFN-γ secretion by ELISA. IFN-γ secretion from treatment with PL-C alone (left panel) or in combination with IL-12 (10 ng/mL, middle panel) or IL-15 (100 ng/mL, right panel) is shown. (D) Cells were treated as described in (C) and harvested at 12 h, IFNG mRNA expression was assessed by real-time RT-PCR, and the relative IFNG mRNA expression of each treatment was normalized to untreated vehicle control in the same donor. Data are shown as mean±SEM (n=6 in each treatment; error bars represent SEM). *p<0.05, **p<0.01, which denote statistical comparison between the two marked treatment groups (B-D). (E) Highly purified (≧99,5%) primary human NK cells were treated with 10 μM. PL-C in combination with various concentrations of IL-12 (10, 1, and 0.1 ng/mL) or IL-15 (100, 10, and 1 ng/mL) for 24 h to determine the levels of IFN-γ secretion. Representative data from one of three donors with the similar data are shown. *p<0.05, **p<0.01, which denote statistical comparison between the two marked treatment groups and are calculated from data of all tested donors. Error bars represent SD. […]
(A) Human […] were treated with DMSO vehicle control or 10 μM PL-C for 18 hours in the presence of IL-12 (10 ng/mL) or IL-15 (100 ng/mL), as described in FIG. 37C. […] (B) Purified primary NK cells were treated with IL-12 (10 ng/mL) or IL-15 (100 ng/mL) with or without 10 μM PL-C for 8 hours and were sequentially co-cultured with […] labeled ARH-77 cells at various effector/target cell ratios for additional 4 hours. ^51Cr release was measured by a TopCount counter. […]

COc1cc2c(OC3OCC(O)C(O)C3O)c3c(c(-c4ccc5c(c4)OCO5)c2cc1OC)C(=O)OC3 (stereo not drawn) [Compound 4, Phyllanthusmin C]
IFNG mRNA expression in NK cells (alone or with IL-12 or IL-15): induced IFN-γ gene (IFNG) expression at the transcriptional level | mRNA expression of IL-12R and IL-15R chains (cotreated with IL-12): downregulated mRNA expression of IL-12Rβ1, IL-12Rβ2, and IL-15Rα | expression of cytotoxicity-associated genes (granzyme A, granzyme B, perforin, Fas ligand) (with IL-12 or IL-15): unaffected
